From patent US9000029B2, “Proline sulfonamide derivatives as orexin receptor antagonists” (Actelion Pharmaceuticals Ltd., priority 2010, dated 2015)
Read-outs that look alike come from different tables or passages of the source.

Key:
[1] = biological target: human orexin-2 receptor (Homo sapiens (Human), UniProt O43614); test: Intracellular calcium measurements (FLIPR), antagonism of orexin-A response; assay type: cell-based; conditions: CHO cells, 3 nM orexin-A, read-out: IC50 Ox2
Experimental: (§1) In Vitro Assay: Intracellular Calcium Measurements:
(§2) Chinese hamster ovary (CHO) cells expressing the human orexin-1 receptor and the human orexin-2 receptor, respectively, are grown in culture medium (Ham F-12 with L-Glutamine) containing 300 μg/ml G418, 100 U/ml penicillin, 100 μg/ml streptomycin and 10% heat inactivated fetal calf serum (FCS). The cells are seeded at 20'000 cells/well into 384-well black clear bottom sterile plates (Greiner). The seeded plates are incubated overnight at 37° C. in 5% CO2.
(§3) Human orexin-A as an agonist is prepared as 1 mM stock solution in MeOH: water (1:1), diluted in HBSS containing 0.1% bovine serum albumin (BSA), NaHCO3: 0.375 g/l and 20 mM HEPES for use in the assay at a final concentration of 3 nM.
(§4) Antagonists are prepared as 10 mM stock solution in DMSO, then diluted in 384-well plates using DMSO followed by a transfer of the dilutions into in HBSS containing 0.1% bovine serum albumin (BSA), NaHCO3: 0.375 g/l and 20 mM HEPES. On the day of the assay, 50 μl of staining buffer (HBSS containing 1% FCS, 20 mM HEPES, NaHCO3: 0.375 g/l, 5 mM probenecid (Sigma) and 3 μM of the fluorescent calcium indicator fluo-4 AM (1 mM stock solution in DMSO, containing 10% pluronic) is added to each well. The 384-well cell-plates are incubated for 50 min at 37° C. in 5% CO2 followed by equilibration at RT for 30 min before measurement.
(§5) Within the Fluorescent Imaging Plate Reader (FLIPR Tetra, Molecular Devices), antagonists are added to the plate in a volume of 10 μl/well, incubated for 10 min or (where explicitly indicated) for 120 min and finally 10 μl/well of agonist is added. Fluorescence is measured for each well at 1 second intervals, and the height of each fluorescence peak is compared to the height of the fluorescence peak induced by 3 nM orexin-A with vehicle in place of antagonist. The IC50 value (the concentration of compound needed to inhibit 50% of the agonistic response) is determined and may be normalized using the obtained IC50 value of a on-plate reference compound. Optimized conditions were achieved by adjustment of pipetting speed and cell splitting regime. The calculated IC50 values may fluctuate depending on the daily cellular assay performance. Fluctuations of this kind are known to those skilled in the art.

[2] = biological target: human orexin-1 receptor (Homo sapiens (Human), UniProt O43613); test: as above; assay type: cell-based; conditions: CHO cells, 3 nM orexin-A, read-out: IC50 Ox1
Chain of human orexin-1 receptor (O43613 whole entry): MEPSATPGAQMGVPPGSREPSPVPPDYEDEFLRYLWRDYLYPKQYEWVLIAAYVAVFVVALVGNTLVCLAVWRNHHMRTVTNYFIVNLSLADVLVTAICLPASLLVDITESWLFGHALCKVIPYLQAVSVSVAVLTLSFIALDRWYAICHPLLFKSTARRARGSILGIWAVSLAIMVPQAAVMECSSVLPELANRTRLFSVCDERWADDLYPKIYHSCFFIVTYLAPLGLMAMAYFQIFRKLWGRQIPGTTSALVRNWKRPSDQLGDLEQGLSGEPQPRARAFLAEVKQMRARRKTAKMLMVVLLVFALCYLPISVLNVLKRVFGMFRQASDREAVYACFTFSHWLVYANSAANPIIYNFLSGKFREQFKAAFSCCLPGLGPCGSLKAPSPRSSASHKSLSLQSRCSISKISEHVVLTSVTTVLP
Experimental: as §1, §2, §3, §4, §5

[3] = compound incubation time of 120 min

Chain of human orexin-2 receptor (O43614 whole entry): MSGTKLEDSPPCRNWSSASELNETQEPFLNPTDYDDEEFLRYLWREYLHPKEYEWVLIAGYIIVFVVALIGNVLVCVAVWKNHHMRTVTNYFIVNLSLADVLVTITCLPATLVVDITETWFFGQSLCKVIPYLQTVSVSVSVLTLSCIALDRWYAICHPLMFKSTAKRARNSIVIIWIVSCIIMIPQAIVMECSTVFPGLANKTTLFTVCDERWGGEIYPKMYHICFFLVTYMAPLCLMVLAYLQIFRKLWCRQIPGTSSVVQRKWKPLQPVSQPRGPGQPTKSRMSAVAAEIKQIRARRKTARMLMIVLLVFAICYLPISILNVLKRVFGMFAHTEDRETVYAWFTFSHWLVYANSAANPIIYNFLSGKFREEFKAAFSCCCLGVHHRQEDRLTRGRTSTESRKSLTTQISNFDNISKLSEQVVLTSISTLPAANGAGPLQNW

| IC50 ([1]; compound incubation 10 min) | IC50 ([2]; compound incubation 10 min) | IC50 [1, 3] | IC50 [2, 3] | SMILES |
| --- | --- | --- | --- | --- |
| 0.058 µM | 0.13 µM | – | – | COc1ccc(S(=O)(=O)N2CCC[C@H]2C(=O)Nc2ccc(Cl)c(Cl)c2)cc1 [Example 40, (S)-1-(4-Methoxy-benzenesulfonyl)-pyrrolidine-2-carboxylic acid (3,4-dichloro-phenyl)-amide] |
| 0.026 µM | 0.304 µM | – | – | COc1ccc(S(=O)(=O)N2CCC[C@H]2C(=O)Nc2cc(C)ccc2F)cc1 [Example 38, (S)-1-(4-Methoxy-benzenesulfonyl)-pyrrolidine-2-carboxylic acid (2-fluoro-5-methyl-phenyl)-amide] |
| – | – | 0.101 µM | 0.109 µM | COc1ccc(S(=O)(=O)N2CCC[C@H]2C(=O)Nc2cc(C)cc(C)c2)cc1OC [Example 44, (S)-1-(3,4-Dimethoxy-benzenesulfonyl)-pyrrolidine-2-carboxylic acid (3,5-dimethyl-phenyl)-amide] |
| – | – | 0.171 µM | 0.234 µM | Cc1cc(C)cc(NC(=O)[C@@H]2CCCN2S(=O)(=O)c2cc(C)c(Cl)cc2C)c1 [Example 55, (S)-1-(4-Chloro-2,5-dimethyl-benzenesulfonyl)-pyrrolidine-2-carboxylic acid (3,5-dimethyl-phenyl)-amide] |
| – | – | 0.026 µM | 0.216 µM | Cc1cc(C)cc(NC(=O)[C@@H]2CCCN2S(=O)(=O)c2cccc3ccccc23)c1 [Example 42, (S)-1-(Naphthalene-1-sulfonyl)-pyrrolidine-2-carboxylic acid (3,5-dimethyl-phenyl)-amide] |
| 0.002 µM | 0.008 µM | – | – | CSc1cccc(NC(=O)[C@@H]2CCCN2S(=O)(=O)c2cccc(Cl)c2)c1 [Example 7, (S)-1-(3-Chloro-benzenesulfonyl)-pyrrolidine-2-carboxylic acid (3-methylsulfanyl-phenyl)-amide] |
| 0.008 µM | 0.028 µM | – | – | COc1cccc(S(=O)(=O)N2CCC[C@H]2C(=O)Nc2cccc(SC)c2)c1 [Example 3, (S)-1-(3-Methoxy-benzenesulfonyl)-pyrrolidine-2-carboxylic acid (3-methylsulfanyl-phenyl)-amide] |
| 0.164 µM | 0.333 µM | – | – | O=C(Nc1ccccc1)[C@@H]1CCCN1S(=O)(=O)c1ccc(Br)s1 [Example 15, (S)-1-(5-Bromo-thiophene-2-sulfonyl)-pyrrolidine-2-carboxylic acid phenylamide] |
| 0.068 µM | 0.086 µM | – | – | COc1ccc(S(=O)(=O)N2CCC[C@H]2C(=O)Nc2cc(C(F)(F)F)cc(C(F)(F)F)c2)cc1 [Example 30, (S)-1-(4-Methoxy-benzenesulfonyl)-pyrrolidine-2-carboxylic acid (3,5-bis-trifluoromethyl-phenyl)-amide] |
| – | – | 0.036 µM | 1.58 µM | Cc1cc(C)cc(NC(=O)[C@@H]2CCCN2S(=O)(=O)c2cc(C(F)(F)F)ccc2Cl)c1 [Example 50, (S)-1-(2-Chloro-5-trifluoromethyl-benzenesulfonyl)-pyrrolidine-2-carboxylic acid (3,5-dimethyl-phenyl)-amide] |
| 0.018 µM | 0.235 µM | – | – | COc1ccc(S(=O)(=O)N2CCC[C@H]2C(=O)Nc2ccc(Cl)c(C)c2)cc1 [Example 39, (S)-1-(4-Methoxy-benzenesulfonyl)-pyrrolidine-2-carboxylic acid (4-chloro-3-methyl-phenyl)-amide] |
| – | – | 0.049 µM | 0.079 µM | Cc1cc(C)cc(NC(=O)[C@@H]2CCCN2S(=O)(=O)c2ccc(Br)cc2)c1 [Example 41, (S)-1-(4-Bromo-benzenesulfonyl)-pyrrolidine-2-carboxylic acid (3,5-dimethyl-phenyl)-amide] |
| – | – | 0.082 µM | 0.089 µM | Cc1cc(C)cc(NC(=O)[C@@H]2CCCN2S(=O)(=O)c2ccc(C)cc2Br)c1 [Example 52, (S)-1-(2-Bromo-4-methyl-benzenesulfonyl)-pyrrolidine-2-carboxylic acid (3,5-dimethyl-phenyl)-amide] |
| 0.038 µM | 0.134 µM | – | – | CCOc1cccc(NC(=O)[C@@H]2CCCN2S(=O)(=O)c2ccc(OC)cc2)c1 [Example 32, (S)-1-(4-Methoxy-benzenesulfonyl)-pyrrolidine-2-carboxylic acid (3-ethoxy-phenyl)-amide] |
